The results in this text go back to patent US20230060425A1, “FUSED BICYCLIC HETEROCYCLE DERIVATIVES AS PESTICIDES” (Bayer Aktiengesellschaft, priority 2019, published 2023).

Format in all cases: in vivo
The test system of one experiment is Diabrotica balteata. The experiment in a line: Diabrotica balteata spray test. As to conditions: 168 h, application rate 160 μg/cavity (μg/well), wheat grains, after 7 days, read-out: efficacy. The procedure: Diabrotica balteata—Spray Test
(§1) Solvent: • 78 parts by weight of acetone • 1.5 parts by weight of dimethylformamide
(§2) Emulsifier: alkylaryl polyglycol ether
(§3) To produce a suitable active compound preparation, 1 part by weight of active compound is dissolved using the stated parts by weight of solvent and made up with water containing an emulsifier concentration of 1000 ppm until the desired concentration is attained. To produce further test concentrations, the formulation is diluted with emulsifier-containing water.
Pre-swollen wheat grains (Triticum aestivum) are incubated in a multiwell plate filled with agar and a little water for one day (5 seed grains per well). The germinated wheat grains are sprayed with an active compound preparation of the desired concentration. Subsequently, each cavity is infected with 10-20 beetle larvae of Diabrotica balteata.
After 7 days, the efficacy in % is determined. 100% means that all wheat plants have grown as in the untreated, uninfected control; 0% means that no wheat plant has grown.

In experiment [1] the test system is Myzus persicae. The experiment in a line: Myzus persicae oral test. Particulars: 120 h, application rate 4 ppm, after 5 days, read-out: efficacy. The procedure: Solvent: 100 parts by weight of acetone
To produce a suitable preparation of active compound, 1 part by weight of active compound is dissolved using the specified parts by weight of solvent and made up with water until the desired concentration is attained.
50 μl of the active compound preparation are transferred into microtitre plates and made up to a final volume of 200 μl with 150 μl of IPL41 insect medium (33%+15% sugar). Subsequently, the plates are sealed with parafilm, which a mixed population of green peach aphids (Myzus persicae) within a second microtitre plate is able to puncture and imbibe the solution through it.
(§4) After 5 days, the efficacy in % is determined. 100% means that all the aphids have been killed; 0% means that no aphids have been killed.

In the next experiment the test system is Spodoptera frugiperda. The experiment can be described thus: Spodoptera frugiperda spray test. Particulars: foliar, 168 h, application rate 100 g/ha, maize leaf discs, after 7 days, read-out: efficacy. How it is done: Spodoptera frugiperda—Spray Test
Solvent: • 78.0 parts by weight of acetone • 1.5 parts by weight of dimethylformamide
as §2
To produce further test concentrations, the formulation is diluted with emulsifier-containing water.
After 7 days, the efficacy in % is determined. 100% means that all the caterpillars have been killed; 0% means that no caterpillar has been killed.

The subject of experiment [2] is Myzus persicae. The experiment in a line: Myzus persicae spray test. Particulars: foliar, 120 h, application rate 100 g/ha, Chinese cabbage leaf discs, after 5 days, read-out: efficacy. The procedure: Myzus persicae—Spray Test
as §1, §2, §3
Discs of Chinese cabbage leaves (Brassica pekinensis) infested by all stages of the green peach aphid (Myzus persicae) are sprayed with an active compound formulation of the desired concentration.
as §4

`CCS(=O)(=O)c1c(-c2nc3cc(S(=O)(=O)C(F)(F)F)cnc3n2C)ncc2cc(Br)ccc12` [Example I-016]: the pest or weed control at 160 µg/well in the experiment on Diabrotica balteata was 100%. In the experiment on Myzus persicae [1], the pest or weed control at 4 ppm stood at 100%. Moreover, the pest or weed control at 100 g/ha in the experiment on Spodoptera frugiperda worked out at 100%.
Take `CCS(=O)(=O)c1c(-c2nc3cc(C(F)(F)F)ncc3n2C)ncc2c(Br)cccc12` [Example I-018]: the pest or weed control at 160 µg/well in the experiment on Diabrotica balteata amounted to 100%. In addition, in the experiment on Myzus persicae [1], the pest or weed control at 4 ppm is 100%. In the experiment with Myzus persicae [2], the pest or weed control at 100 g/ha worked out at 100%.
In the case of `CCS(=O)(=O)c1c(-c2nc3cc(C(F)(F)C(F)(F)F)ncc3n2C)ncc2c(Br)cccc12` [Example I-019], in the experiment with Diabrotica balteata, the pest or weed control at 160 µg/well stood at 100%. In the experiment on Myzus persicae [1], the pest or weed control at 4 ppm was 100%. For the same compound, the pest or weed control at 100 g/ha with Spodoptera frugiperda was determined as 100%.
Regarding `CCS(=O)(=O)c1c(-c2nc3cc(C(F)(F)F)nnc3n2C)ncc2cc(Br)ccc12` [Example I-028], the pest or weed control at 160 µg/well in the experiment with Diabrotica balteata turned out to be 80%. The pest or weed control at 4 ppm with Myzus persicae [1] turned out to be 100%. Further, the pest or weed control at 100 g/ha in the experiment on Myzus persicae [2] stood at 90%; with Spodoptera frugiperda, 100%.
`CCS(=O)(=O)c1c(-c2nc3cc(C(F)(F)C(F)(F)F)cnc3n2C)ncc2c(C#N)cccc12` [Example I-030]: the pest or weed control at 160 µg/well in the experiment on Diabrotica balteata worked out at 100%. For the same compound, the pest or weed control at 4 ppm with Myzus persicae [1] stood at 100%. Further, the pest or weed control at 100 g/ha with Spodoptera frugiperda was 100%.
Turning to `CCS(=O)(=O)c1c(-c2nc3cc(C(F)(F)C(F)(F)F)cnc3n2C)ncc2c(Cl)cccc12` [Example I-031], the pest or weed control at 160 µg/well in the experiment with Diabrotica balteata came to 100%. In addition, the pest or weed control at 4 ppm in the experiment on Myzus persicae [1] was 100%. In the experiment with Spodoptera frugiperda, the pest or weed control at 100 g/ha worked out at 100%.
In the case of `CCS(=O)(=O)c1c(-c2nc3cc(C(F)(F)F)cnc3n2C)ncc2cc(OC)ccc12` [Example I-033], the pest or weed control at 4 ppm in the experiment with Myzus persicae [1] is 100%. For the same compound, the pest or weed control at 100 g/ha in the experiment on Spodoptera frugiperda was determined as 100%.
Take `CCS(=O)(=O)c1c(-c2nc3cc(C(F)(F)F)nnc3n2C)ncc2ccc(Cl)cc12` [Example I-039]: the pest or weed control at 160 µg/well in the experiment with Diabrotica balteata was found to be 100%. Besides, in the experiment with Myzus persicae [1], the pest or weed control at 4 ppm was found to be 100%. Moreover, the pest or weed control at 100 g/ha in the experiment with Spodoptera frugiperda was 100%.
Consider `CCS(=O)(=O)c1c(-c2nc3cc(C(F)(F)F)nnc3n2C)ncc2ccc(C)cc12` [Example I-044], for which the pest or weed control at 160 µg/well in the experiment on Diabrotica balteata came to 100%. In addition, the pest or weed control at 4 ppm in the experiment on Myzus persicae [1] was found to be 100%. For the same compound, in the experiment with Myzus persicae [2], the pest or weed control at 100 g/ha amounted to 90%.
For the compound `CCS(=O)(=O)c1c(-c2nc3cc(C(F)(F)C(F)(F)F)nnc3n2C)ncc2c(Br)cccc12` [Example I-046], the pest or weed control at 160 µg/well in the experiment with Diabrotica balteata stood at 100%. Further, the pest or weed control at 4 ppm in the experiment on Myzus persicae [1] is 100%. Also, the pest or weed control at 100 g/ha in the experiment with Spodoptera frugiperda was 100%.
For the compound `CCS(=O)(=O)c1c(-c2nc3cc(C(F)(F)C(F)(F)F)cnc3n2C)ncc2cc(OCC(F)(F)F)ccc12` [Example I-048], the pest or weed control at 160 µg/well in the experiment on Diabrotica balteata was 100%. Besides, in the experiment on Spodoptera frugiperda, the pest or weed control at 100 g/ha was determined as 100%.
In the case of `CCS(=O)(=O)c1c(-c2nc3cc(C(F)(F)C(F)(F)F)cnc3n2C)ncc2cc(OCC(F)F)ccc12` [Example I-049], the pest or weed control at 160 µg/well in the experiment with Diabrotica balteata was determined as 80%. Moreover, the pest or weed control at 100 g/ha in the experiment on Spodoptera frugiperda worked out at 100%.
Turning to `CCS(=O)(=O)c1c(-c2nc3cc(C(F)(F)C(F)(F)F)cnc3n2C)ncc2cc(C3CC3)ccc12` [Example I-050], the pest or weed control at 160 µg/well in the experiment with Diabrotica balteata is 100%. Besides, in the experiment on Myzus persicae [1], the pest or weed control at 4 ppm is 90%. The pest or weed control at 100 g/ha in the experiment with Spodoptera frugiperda is 100%.
On to `CCS(=O)(=O)c1c(-c2nc3cc(C(F)(F)C(F)(F)F)nnc3n2C)ncc2cc(C#N)ccc12` [Example I-051], for which the pest or weed control at 160 µg/well in the experiment on Diabrotica balteata was 100%. Moreover, the pest or weed control at 4 ppm in the experiment on Myzus persicae [1] stood at 100%. The pest or weed control at 100 g/ha with Spodoptera frugiperda was found to be 100%.
Consider `CCS(=O)(=O)c1c(-c2nc3cc(C(F)(F)C(F)(F)F)nnc3n2C)ncc2c(Cl)cccc12` [Example I-052], for which, in the experiment with Diabrotica balteata, the pest or weed control at 160 µg/well was 100%. Besides, the pest or weed control at 4 ppm in the experiment on Myzus persicae [1] was 100%. Besides, the pest or weed control at 100 g/ha with Spodoptera frugiperda was found to be 100%.
Consider `CCS(=O)(=O)c1c(-c2nc3cc(C(F)(F)C(F)(F)F)cnc3n2C)ncc2cc(OCC(C)(F)F)ccc12` [Example I-053], for which the pest or weed control at 160 µg/well in the experiment on Diabrotica balteata was 100%. The pest or weed control at 100 g/ha in the experiment on Spodoptera frugiperda was 100%.
